The values below come from patent publication US20250114460A1, “NOVEL PLK1 DEGRADATION INDUCING COMPOUND” (UPPTHERA, INC., priority 2021, published 2025).

By IC50 is commonly meant the concentration that inhibits the measured activity by half.

Type in all cases: cell-based
The target of one assay is T1, PLK1 (Homo sapiens, UniProt P53350).
T1 construct: endogenous in cells; host or cells: HeLa LgBit (Plk1-HiBit KI): HeLa stably expressing LgBit, with a CRISPR/Cas9 knock-in of HiBit at the endogenous PLK1 locus
T1 sequence (P53350 whole entry): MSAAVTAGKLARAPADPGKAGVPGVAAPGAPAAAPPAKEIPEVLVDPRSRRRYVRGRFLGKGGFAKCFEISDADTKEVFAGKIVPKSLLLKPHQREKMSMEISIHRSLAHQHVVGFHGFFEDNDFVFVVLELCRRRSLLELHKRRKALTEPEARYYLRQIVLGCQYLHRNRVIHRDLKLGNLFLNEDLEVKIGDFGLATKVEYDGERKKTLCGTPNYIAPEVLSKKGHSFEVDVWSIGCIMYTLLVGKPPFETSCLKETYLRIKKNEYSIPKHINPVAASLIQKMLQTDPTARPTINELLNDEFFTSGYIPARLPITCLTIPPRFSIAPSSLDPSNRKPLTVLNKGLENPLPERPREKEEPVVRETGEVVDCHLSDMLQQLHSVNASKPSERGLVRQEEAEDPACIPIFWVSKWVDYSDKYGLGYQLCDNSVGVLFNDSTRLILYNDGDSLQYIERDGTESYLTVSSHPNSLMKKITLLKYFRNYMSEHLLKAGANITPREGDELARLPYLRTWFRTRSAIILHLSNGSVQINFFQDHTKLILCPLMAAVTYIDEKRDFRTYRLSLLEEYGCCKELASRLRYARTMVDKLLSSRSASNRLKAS
Briefly: Luciferase assay for PLK1 in HeLa LgBit (Plk1-HiBit KI) cell line. As to conditions: 300 nM compound, luminescence after 9 hours. The method, boiled down: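 HeLa cells stably expressing LgBit, with HiBit knocked in at the C-terminus of endogenous Plk1, released from a 24 h 2 mM thymidine block and grown 18 h. Endurazine added, then compound at 300 nM; luminescence tracked in real time, expressed as ratio to DMSO.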

For another assay, the system named is NCI-H526 cell line. Briefly: Cell viability assay for H526 cell (EZ-Cytox). As to conditions: Homo sapiens, NCI-H526, 120 h; H526 cells, 5 days, 3000 nM to 0.46 nM. The method in brief:
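NCI-H526 cells were exposed to compound in CO2 incubator culture for 5 days. Viability was read by EZ-Cytox absorbance at 450 nm after 3 min shaking, giving IC50 values.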

The test system of the next assay is MRC-5 cell line. Briefly: Cell viability assay for MRC-5 cell line (EZ-Cytox). As to conditions: Homo sapiens, MRC5, 120 h; MRC-5 normal cell line, 5 days, 10000 nM to 1.52 nM; N.D. = no cytotoxicity until 10 μM; read-out: Activity: IC50 value of Exemplary Compound to MRC-5 cell line. As for the experimental part: 4. Cell Viability Assay for MRC-5 Cell Line
(1) Culture of MRC-5 Cell Line
Passage of cultured cells was maintained within P15.
(2) Treatment of Compounds of the Present Invention
Then, it was cultured in 37° C.
(3) Cytotoxicity Experiment
CO2 incubator for 4 hours.

`COc1cc(C(=O)NN2CCN(C(=O)CCC3CCN(c4cccc5c4CN(C4CCC(=O)NC4=O)C5=O)CC3)CC2)ccc1Nc1ncc2c(n1)N(C(C)C)CC(F)(F)C(=O)N2C` (stereo not drawn) [Compound 58, 4-((7,7-difluoro-9-isopropyl-5-methyl-6-oxo-6,7,8,9-tetrahydro-5H-pyrimido[4,5-b][1,4]diazepin-2-yl)amino)-N-(4-(3-(1-(2-(2,6-dioxopiperidin-3-yl)-1-oxoisoindolin-4-yl)piperidin-4-yl)propanoyl)piperazin-1-yl)-3-methoxybenzamide]: the “Activity: ratio of the luminescense value of each Exemplary Compound treatment group to DMSO treatment group” value (“Activity: ratio” for short) on PLK1 was “++ (++<0.6)”. Also, the IC50 with NCI-H526 cell line is below 0.05 µM; in the assay with MRC-5 cell line, above 10 µM.
The like results for `COc1cc(C(=O)NC2CC(N(C)C3CCN(c4cccc5c4C(=O)N(C4CCC(=O)NC4=O)C5=O)CC3)C2)ccc1Nc1ncc2c(n1)N(C(C)C)CC(F)(F)C(=O)N2C` (stereo not drawn) [Compound 164, 4-((7,7-difluoro-9-isopropyl-5-methyl-6-oxo-6,7,8,9-tetrahydro-5H-pyrimido[4,5-b][1,4]diazepin-2-yl)amino)-N-(3-((1-(2-(2,6-dioxopiperidin-3-yl)-1,3-dioxoisoindolin-4-yl)piperidin-4-yl)(methyl)amino)cyclobutyl)-3-methoxybenzamide] were, in that order, “++ (++<0.6)”, below 0.03 µM and above 10 µM.
In the case of `COc1cc(C(=O)NN2CCC(N3CC4(CCN(c5ccc6c(c5)C(=O)N(C5CCC(=O)NC5=O)C6=O)CC4)C3)CC2)ccc1Nc1ncc2c(n1)N(C1CCCC1)CC(F)(F)C(=O)N2C` (stereo not drawn) [Compound 212, 4-((9-cyclopentyl-7,7-difluoro-5-methyl-6-oxo-6,7,8,9-tetrahydro-5H-pyrimido[4,5-b][1,4]diazepin-2-yl)amino)-N-(4-(7-(2-(2,6-dioxopiperidin-3-yl)-1,3-dioxoisoindolin-5-yl)-2,7-diazaspiro[3.5]nonan-2-yl)piperidin-1-yl)-3-methoxybenzamide], the “Activity: ratio” value on PLK1 was “++ (++<0.6)”. Also, the IC50 is below 0.03 µM in the assay with NCI-H526 cell line and above 10 µM with MRC-5 cell line.
Consider `COc1cc(C(=O)NC2CCN(C(=O)CCN3CCN(c4cccc5c4C(=O)N(C4CCC(=O)NC4=O)C5=O)CC3)CC2)ccc1Nc1ncc2c(n1)N(C(C)C)CC(F)(F)C(=O)N2C` (stereo not drawn) [Compound 66, 4 4-((7,7-difluoro-9-isopropyl-5-methyl-6-oxo-6,7,8,9-tetrahydro-5H-pyrimido[4,5-b][1,4]diazepin-2-yl)amino)-N-(1-(3-(4-(2-(2,6-dioxopiperidin-3-yl)-1,3-dioxoisoindolin-4-yl)piperazin-1-yl)propanoyl)piperidin-4-yl)-3-methoxybenzamide], for which, on PLK1, the “Activity: ratio” value is recorded as “+++ (+++: <0.3)”. Moreover, the IC50 in the assay on NCI-H526 cell line is below 0.05 µM; in the assay on MRC-5 cell line it was above 10 µM.
With `CN1C(=O)C(F)(F)CN(C2CCCC2)c2nc(Nc3ccc(C(=O)NC4CCN(C(=O)CCN5CCN(c6cccc7c6C(=O)N(C6CCC(=O)NC6=O)C7=O)CC5)CC4)cc3F)ncc21` (stereo not drawn) [Compound 118, 4-((9-cyclopentyl-7,7-difluoro-5-methyl-6-oxo-6,7,8,9-tetrahydro-5H-pyrimido[4,5-b][1,4]diazepin-2-yl)amino)-N-(1-(3-(4-(2-(2,6-dioxopiperidin-3-yl)-1,3-dioxoisoindolin-4-yl)piperazin-1-yl)propanoyl)piperidin-4-yl)-3-fluorobenzamide], on PLK1, the “Activity: ratio” value is “++ (++<0.6)”. Besides, the IC50 with NCI-H526 cell line is below 0.05 µM; in the assay with MRC-5 cell line it was above 10 µM.
As for `COc1cc(C(=O)NC2CCCN(C(=O)CCN3CCN(c4cccc5c4C(=O)N(C4CCC(=O)NC4=O)C5=O)CC3)C2)ccc1Nc1ncc2c(n1)N(C1CCCC1)CC(F)(F)C(=O)N2C` (stereo not drawn) [Compound 123, 4-((9-cyclopentyl-7,7-difluoro-5-methyl-6-oxo-6,7,8,9-tetrahydro-5H-pyrimido[4,5-b][1,4]diazepin-2-yl)amino)-N-(1-(3-(4-(2-(2,6-dioxopiperidin-3-yl)-1,3-dioxoisoindolin-4-yl)piperazin-1-yl)propanoyl)piperidin-3-yl)-3-methoxybenzamide], the “Activity: ratio” value at PLK1 is reported as “++ (++<0.6)”. Further, the IC50 in the assay on NCI-H526 cell line is below 0.1 µM; in the assay on MRC-5 cell line, above 10 µM.
As to `COc1cc(C(=O)NN2CCN(C(=O)CCC3CCN(c4cccc5c4C(=O)N(C4CCC(=O)NC4=O)C5=O)CC3)CC2)ccc1Nc1ncc2c(n1)N(C1CCCC1)CC(F)(F)C(=O)N2C` (stereo not drawn) [Compound 76, 4-((9-cyclopentyl-7,7-difluoro-5-methyl-6-oxo-6,7,8,9-tetrahydro-5H-pyrimido[4,5-b][1,4]diazepin-2-yl)amino)-N-(4-(3-(1-(2-(2,6-dioxopiperidin-3-yl)-1,3-dioxoisoindolin-4-yl)piperidin-4-yl)propanoyl)piperazin-1-yl)-3-methoxybenzamide], the “Activity: ratio” value at PLK1 is listed as “+++ (+++: <0.3)”. In addition, the IC50 with NCI-H526 cell line is below 0.1 µM; in the assay with MRC-5 cell line it was above 10 µM.
Turning to `COc1cc(C(=O)N[C@H]2CC[C@@H](N(C)CCN3CCN(c4cccc5c4C(=O)N(C4CCC(=O)NC4=O)C5=O)CC3)CC2)ccc1Nc1ncc2c(n1)N(C1CCCC1)CC(F)(F)C(=O)N2C` (stereo partly drawn) [Compound 128, 4-((9-cyclopentyl-7,7-difluoro-5-methyl-6-oxo-6,7,8,9-tetrahydro-5H-pyrimido[4,5-b][1,4]diazepin-2-yl)amino)-N-((1s,4s)-4-((2-(4-(2-(2,6-dioxopiperidin-3-yl)-1,3-dioxoisoindolin-4-yl)piperazin-1-yl)ethyl)(methyl)amino)cyclohexyl)-3-methoxybenzamide], the “Activity: ratio” value at PLK1 was “++ (++<0.6)”. The IC50 was below 0.05 µM in the assay on NCI-H526 cell line and 18.8 µM with MRC-5 cell line.
For the compound `COc1cc(C(=O)NN2CCN(C3CCN(c4cccc5c4C(=O)N(C4CCC(=O)NC4=O)C5=O)C3)CC2)ccc1Nc1ncc2c(n1)N(C1CCCC1)CC(F)(F)C(=O)N2C` (stereo not drawn) [Compound 51, 4-((9-cyclopentyl-7,7-difluoro-5-methyl-6-oxo-6,7,8,9-tetrahydro-5H-pyrimido[4,5-b][1,4]diazepin-2-yl)amino)-N-(4-(1-(2-(2,6-dioxopiperidin-3-yl)-1,3-dioxoisoindolin-4-yl)pyrrolidin-3-yl)piperazin-1-yl)-3-methoxybenzamide], the “Activity: ratio” value on PLK1 is listed as “++ (++<0.6)”. The IC50 is below 0.03 µM with NCI-H526 cell line and above 10 µM in the assay on MRC-5 cell line.
In the case of `CN1C(=O)C(F)(F)CN(C2CCCC2)c2nc(Nc3ccc(C(=O)NC4CCN(C(=O)CCN5CCN(c6cccc7c6C(=O)N(C6CCC(=O)NC6=O)C7=O)CC5)CC4)cc3O)ncc21` (stereo not drawn) [Compound 72, 4-((9-cyclopentyl-7,7-difluoro-5-methyl-6-oxo-6,7,8,9-tetrahydro-5H-pyrimido[4,5-b][1,4]diazepin-2-yl)amino)-N-(1-(3-(4-(2-(2,6-dioxopiperidin-3-yl)-1,3-dioxoisoindolin-4-yl)piperazin-1-yl)propanoyl)piperidin-4-yl)-3-hydroxybenzamide], the “Activity: ratio” value at PLK1 was “++ (++<0.6)”. Also, the IC50 is below 0.1 µM with NCI-H526 cell line and above 10 µM in the assay on MRC-5 cell line.
The like results for `COc1cc(C(=O)NC2CC3(CCN(CC4CCN(c5ccc6c(c5)C(=O)N(C5CCC(=O)NC5=O)C6=O)CC4)CC3)C2)ccc1Nc1ncc2c(n1)N(C1CCCC1)CC(F)(F)C(=O)N2C` (stereo not drawn) [Compound 137, 4-((9-cyclopentyl-7,7-difluoro-5-methyl-6-oxo-6,7,8,9-tetrahydro-5H-pyrimido[4,5-b][1,4]diazepin-2-yl)amino)-N-(7-((1-(2-(2,6-dioxopiperidin-3-yl)-1,3-dioxoisoindolin-5-yl)piperidin-4-yl)methyl)-7-azaspiro[3.5]nonan-2-yl)-3-methoxybenzamide] were, in that order, “++ (++<0.6)”, below 0.03 µM and 16.9 µM.
For `COc1cc(C(=O)NN2CCC(CN3CCN(c4cccc5c4C(=O)N(C4CCC(=O)NC4=O)C5=O)CC3)CC2)ccc1Nc1ncc2c(n1)N(C1CCCC1)CC(F)(F)C(=O)N2C` (stereo not drawn) [Compound 124, 4-((9-cyclopentyl-7,7-difluoro-5-methyl-6-oxo-6,7,8,9-tetrahydro-5H-pyrimido[4,5-b][1,4]diazepin-2-yl)amino)-N-(4-((4-(2-(2,6-dioxopiperidin-3-yl)-1,3-dioxoisoindolin-4-yl)piperazin-1-yl)methyl)piperidin-1-yl)-3-methoxybenzamide], the “Activity: ratio” value at PLK1 is listed as “++ (++<0.6)”. Moreover, the IC50 is below 0.03 µM in the assay with NCI-H526 cell line and above 10 µM with MRC-5 cell line.
